Like-named read-outs stand apart in the source and are kept apart here.
Tests used:
human HDAC2 = human HDAC2 (Homo sapiens (Human), UniProt Q92769); experiment: HDAC2 inhibition assay (modified FLUOR DE LYS, 384-well); assay type: biochemical; details: […] enzyme, 40 μM substrate BML-KI104, 3 h pre-incubation; read-out: HDAC2 IC50
human HDAC8 = human HDAC8 (Homo sapiens (Human), UniProt Q9BY41); experiment: HDAC8 inhibition assay (modified FLUOR DE LYS, 384-well); assay type: biochemical; details: […] enzyme, 200 μM substrate BML-KI178, 3 h pre-incubation; read-out: HDAC8 IC50
Chain of human HDAC8 (Q9BY41 whole entry): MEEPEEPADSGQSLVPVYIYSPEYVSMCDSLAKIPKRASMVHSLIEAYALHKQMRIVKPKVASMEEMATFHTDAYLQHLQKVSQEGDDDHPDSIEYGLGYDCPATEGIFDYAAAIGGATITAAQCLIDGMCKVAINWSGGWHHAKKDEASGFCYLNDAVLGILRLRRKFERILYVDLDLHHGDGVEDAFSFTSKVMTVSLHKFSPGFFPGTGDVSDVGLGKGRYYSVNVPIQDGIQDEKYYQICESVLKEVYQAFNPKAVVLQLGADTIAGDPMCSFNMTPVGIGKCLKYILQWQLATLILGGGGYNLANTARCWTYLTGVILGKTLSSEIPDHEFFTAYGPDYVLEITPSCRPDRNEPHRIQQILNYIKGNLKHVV

human HDAC1 = human HDAC1 (Homo sapiens (Human), UniProt Q13547)
Chain of human HDAC1 (Q13547 whole entry): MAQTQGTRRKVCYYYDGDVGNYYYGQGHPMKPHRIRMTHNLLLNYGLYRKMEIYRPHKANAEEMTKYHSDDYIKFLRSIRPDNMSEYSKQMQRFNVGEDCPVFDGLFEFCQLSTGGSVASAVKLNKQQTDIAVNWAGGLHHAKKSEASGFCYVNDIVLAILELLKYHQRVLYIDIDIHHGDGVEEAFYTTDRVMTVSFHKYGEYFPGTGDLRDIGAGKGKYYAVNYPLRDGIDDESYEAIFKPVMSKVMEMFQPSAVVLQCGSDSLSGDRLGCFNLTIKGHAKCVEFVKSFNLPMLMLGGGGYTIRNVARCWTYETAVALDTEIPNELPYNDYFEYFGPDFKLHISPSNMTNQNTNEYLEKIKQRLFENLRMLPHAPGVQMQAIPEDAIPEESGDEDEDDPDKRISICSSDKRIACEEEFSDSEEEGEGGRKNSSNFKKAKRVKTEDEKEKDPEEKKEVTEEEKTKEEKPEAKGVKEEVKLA

[1] = biological target: human HDAC3/SMRT heterodimer (Homo sapiens (Human), UniProt O15379)
Chain of human HDAC3/SMRT heterodimer (O15379 whole entry): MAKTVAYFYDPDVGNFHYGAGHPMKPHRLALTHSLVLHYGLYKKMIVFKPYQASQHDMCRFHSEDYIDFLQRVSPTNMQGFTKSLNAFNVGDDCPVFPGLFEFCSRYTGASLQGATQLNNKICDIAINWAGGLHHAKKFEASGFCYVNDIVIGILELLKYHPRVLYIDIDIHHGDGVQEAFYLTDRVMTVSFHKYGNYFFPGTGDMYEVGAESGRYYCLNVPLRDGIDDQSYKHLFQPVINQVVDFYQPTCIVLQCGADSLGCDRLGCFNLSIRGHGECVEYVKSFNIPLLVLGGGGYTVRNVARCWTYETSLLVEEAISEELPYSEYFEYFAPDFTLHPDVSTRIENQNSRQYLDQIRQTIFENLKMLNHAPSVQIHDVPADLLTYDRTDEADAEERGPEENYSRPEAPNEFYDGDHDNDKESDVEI
Chain of human HDAC3/SMRT heterodimer (Q9Y618 1-899 partner): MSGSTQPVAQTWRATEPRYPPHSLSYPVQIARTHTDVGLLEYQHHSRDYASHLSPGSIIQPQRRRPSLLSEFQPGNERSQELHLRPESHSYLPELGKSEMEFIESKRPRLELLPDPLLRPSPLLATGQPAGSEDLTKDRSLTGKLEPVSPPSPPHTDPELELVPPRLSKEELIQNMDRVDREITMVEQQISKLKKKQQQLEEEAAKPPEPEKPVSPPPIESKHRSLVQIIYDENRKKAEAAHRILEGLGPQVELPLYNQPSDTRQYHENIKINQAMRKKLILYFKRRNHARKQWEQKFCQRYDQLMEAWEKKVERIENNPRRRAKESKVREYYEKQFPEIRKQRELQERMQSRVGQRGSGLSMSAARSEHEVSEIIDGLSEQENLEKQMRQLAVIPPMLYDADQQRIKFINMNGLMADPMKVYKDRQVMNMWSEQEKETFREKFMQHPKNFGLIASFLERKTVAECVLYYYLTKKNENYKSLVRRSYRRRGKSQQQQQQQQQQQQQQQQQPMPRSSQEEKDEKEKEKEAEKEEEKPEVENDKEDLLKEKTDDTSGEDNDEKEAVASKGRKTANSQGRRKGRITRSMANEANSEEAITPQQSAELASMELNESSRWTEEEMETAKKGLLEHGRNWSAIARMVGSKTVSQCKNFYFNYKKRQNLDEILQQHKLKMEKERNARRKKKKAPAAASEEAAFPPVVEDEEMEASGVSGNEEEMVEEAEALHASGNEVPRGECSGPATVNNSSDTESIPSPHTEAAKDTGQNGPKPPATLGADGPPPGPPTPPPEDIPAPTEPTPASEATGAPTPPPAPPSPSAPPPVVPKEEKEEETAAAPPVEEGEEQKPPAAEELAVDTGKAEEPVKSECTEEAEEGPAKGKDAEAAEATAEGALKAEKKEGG

KARN cells (Jurkat 2C4) = experiment: cells; details: Homo sapiens
HDAC6 = HDAC6 (Homo sapiens (Human), UniProt Q9UBN7)
Chain of HDAC6 (Q9UBN7 whole entry): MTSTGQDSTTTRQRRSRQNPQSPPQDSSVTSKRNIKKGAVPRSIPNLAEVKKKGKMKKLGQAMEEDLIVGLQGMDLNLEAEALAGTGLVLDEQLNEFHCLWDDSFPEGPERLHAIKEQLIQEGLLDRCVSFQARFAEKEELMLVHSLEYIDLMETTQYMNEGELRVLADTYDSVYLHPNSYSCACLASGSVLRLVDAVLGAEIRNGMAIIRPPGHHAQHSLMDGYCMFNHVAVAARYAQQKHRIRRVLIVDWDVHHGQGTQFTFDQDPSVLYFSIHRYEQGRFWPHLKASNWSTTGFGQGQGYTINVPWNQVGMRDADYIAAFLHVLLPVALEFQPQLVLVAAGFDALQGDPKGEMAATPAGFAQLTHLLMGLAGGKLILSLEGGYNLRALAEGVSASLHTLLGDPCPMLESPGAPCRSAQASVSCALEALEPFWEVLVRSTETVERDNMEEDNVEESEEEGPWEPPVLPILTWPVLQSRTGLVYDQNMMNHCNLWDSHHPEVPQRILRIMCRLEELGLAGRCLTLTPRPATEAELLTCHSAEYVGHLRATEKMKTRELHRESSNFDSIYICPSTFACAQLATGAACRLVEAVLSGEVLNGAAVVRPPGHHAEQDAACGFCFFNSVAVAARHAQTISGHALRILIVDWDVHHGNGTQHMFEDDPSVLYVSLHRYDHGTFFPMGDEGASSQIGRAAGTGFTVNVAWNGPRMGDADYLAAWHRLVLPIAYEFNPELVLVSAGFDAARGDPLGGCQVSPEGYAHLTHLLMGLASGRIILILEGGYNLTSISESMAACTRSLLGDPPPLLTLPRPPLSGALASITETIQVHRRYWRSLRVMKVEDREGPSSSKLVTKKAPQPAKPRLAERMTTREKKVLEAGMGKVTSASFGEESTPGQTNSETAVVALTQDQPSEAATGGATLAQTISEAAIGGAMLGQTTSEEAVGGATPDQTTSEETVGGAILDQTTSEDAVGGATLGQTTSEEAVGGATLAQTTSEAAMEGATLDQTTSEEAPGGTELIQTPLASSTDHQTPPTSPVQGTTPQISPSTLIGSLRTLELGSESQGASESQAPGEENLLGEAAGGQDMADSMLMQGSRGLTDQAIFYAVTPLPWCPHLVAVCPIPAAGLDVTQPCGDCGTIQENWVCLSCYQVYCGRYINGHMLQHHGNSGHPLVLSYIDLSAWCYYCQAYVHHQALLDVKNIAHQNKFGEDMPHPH

[2] = read-out: Karn EC50 nM 0.1% NHS, 0.1% normal human serum, luciferase induction, 2 μM SAHA = 100%
[3] = read-out: Karn EC50 nM 5% NHS, 5% normal human serum, luciferase induction, 2 μM SAHA = 100%

Chain of human HDAC2 (Q92769 whole entry): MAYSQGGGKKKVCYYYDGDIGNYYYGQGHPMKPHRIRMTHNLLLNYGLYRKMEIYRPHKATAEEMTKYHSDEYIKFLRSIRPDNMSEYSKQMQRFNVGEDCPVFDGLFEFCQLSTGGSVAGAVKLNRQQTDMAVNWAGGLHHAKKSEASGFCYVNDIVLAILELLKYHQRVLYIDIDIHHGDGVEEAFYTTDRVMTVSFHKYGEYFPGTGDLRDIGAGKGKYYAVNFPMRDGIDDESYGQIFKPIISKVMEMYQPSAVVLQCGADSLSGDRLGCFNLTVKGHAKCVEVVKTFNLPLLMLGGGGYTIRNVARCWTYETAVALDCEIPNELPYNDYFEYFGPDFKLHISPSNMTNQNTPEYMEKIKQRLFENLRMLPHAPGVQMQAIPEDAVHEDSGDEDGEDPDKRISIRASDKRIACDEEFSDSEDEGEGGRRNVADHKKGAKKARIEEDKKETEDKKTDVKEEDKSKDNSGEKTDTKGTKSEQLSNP

## COc1nc2ccccc2cc1-c1cnc([C@H](CCCCCC(=O)c2ncco2)NC(=O)CN2CCOCC2)[nH]1 [Example 54]
Human HDAC2
  IC50: 0.0063 µM
Human HDAC8
  IC50: 0.088 µM
Human HDAC1
  IC50: 0.002 µM
[1]
  IC50: 0.0015 µM
KARN cells (Jurkat 2C4); [2]
  EC50: 76 nM
KARN cells (Jurkat 2C4); [3]
  EC50: 680 nM

## COc1nc2ccccc2cc1-c1cnc([C@H](CCCCCC(=O)c2ncco2)NC(=O)CCCN(C)C)[nH]1 [Example 55]
Human HDAC2
  IC50: 0.0021 µM
Human HDAC1
  IC50: 0.0003 µM
[1]
  IC50: 0.00048 µM
HDAC6
  IC50: 0.14 µM
KARN cells (Jurkat 2C4); [2]
  EC50: 12 nM
KARN cells (Jurkat 2C4); [3]
  EC50: 32 nM

## COc1nc2ccccc2cc1-c1cnc([C@H](CCCCCC(=O)c2ncco2)NC(=O)C2(c3ccncc3)CC2)[nH]1 [Example 151, N-[(1S)-1-[5-(2-methoxyquinolin-3-yl)-1H-imidazol-2-yl]-7-(1,3-oxazol-2-yl)-7-oxoheptyl]-1-pyridin-4-ylcyclopropanecarboxamide]
Human HDAC2
  IC50: 0.0078 µM
Human HDAC8
  IC50: 0.057 µM
Human HDAC1
  IC50: 0.002 µM
[1]
  IC50: 0.0015 µM
KARN cells (Jurkat 2C4); [2]
  EC50: 68 nM
KARN cells (Jurkat 2C4); [3]
  EC50: 790 nM

## CN1CC(C(=O)N[C@@H](CCCCCC(=O)c2ncco2)c2nc(-c3ccc(F)cc3)c[nH]2)C1 [Example 1, (S)-N-(1-(4-(4-fluorophenyl)-1H-imidazol-2-yl)-7-(oxazol-2-yl)-7-oxoheptyl)-1-methylazetidine-3-carboxamide]
Human HDAC1
  IC50: 0.0011 µM
HDAC6
  IC50: 45 µM

## COc1cc2nc(C)ccc2cc1-c1cnc([C@H](CCCCCC(=O)c2ncco2)NC2CCOCC2)[nH]1 [Example 80, (S)-7-(5-(7-methoxy-2-methylquinolin-6-yl)-1H-imidazol-2-yl)-1-(oxazol-2-yl)-7-((tetrahydro-2H-pyran-4-yl)amino)heptan-1-one]
Human HDAC2
  IC50: 0.01 µM
Human HDAC8
  IC50: 3.5 µM
[1]
  IC50: 0.0057 µM
HDAC6
  IC50: 15 µM
KARN cells (Jurkat 2C4); [2]
  EC50: 550 nM
KARN cells (Jurkat 2C4); [3]
  EC50: 680 nM

## Cn1cc2cc(-n3ccc([C@H](N)CCCCCC(=O)c4ncco4)n3)ccc2n1 [Example 127, (7R)-7-amino-7-[1-(2-methyl-2H-indazol-5-yl)-1H-pyrazol-3-yl]-1-(1,3-oxazol-2-yl)heptan-1-one]
Human HDAC2
  IC50: 2.6 µM
Human HDAC1
  IC50: 0.48 µM
[1]
  IC50: 0.77 µM

## COc1cc2nc(C)ccc2cc1-c1cnc([C@H](CCCCCC(=O)c2ncco2)NC(=O)Cn2cccn2)[nH]1 [Example 160, N-[(1S)-1-[5-(7-methoxy-2-methylquinolin-6-yl)-1H-imidazol-2-yl]-7-(1,3-oxazol-2-yl)-7-oxoheptyl]-2-(1H-pyrazol-1-yl)acetamide]
Human HDAC2
  IC50: 0.0055 µM
Human HDAC8
  IC50: 0.071 µM
[1]
  IC50: 0.00054 µM
HDAC6
  IC50: > 0.9 µM
KARN cells (Jurkat 2C4); [2]
  EC50: 48 nM
KARN cells (Jurkat 2C4); [3]
  EC50: 120 nM

## CN1CCC1C(=O)N[C@@H](CCCCCC(=O)c1ccon1)c1ncc(-c2ccccc2F)[nH]1 (stereo partly shown) [Example 60]
Human HDAC2
  IC50: 0.00041 µM
Human HDAC8
  IC50: 0.0017 µM
Human HDAC1
  IC50: 0.00013 µM
HDAC6
  IC50: > 0.9 µM
KARN cells (Jurkat 2C4); [2]
  EC50: 4.2 nM
KARN cells (Jurkat 2C4); [3]
  EC50: 9 nM

## N[C@@H](CCCCCC(=O)c1ccon1)c1cc(-c2ccc(F)cc2)on1 [Example 118, (S)-7-amino-7-(5-(4-fluorophenyl)isoxazol-3-yl)-1-(isoxazol-3-yl)heptan-1-one]
Human HDAC2
  IC50: 0.008 µM
Human HDAC8
  IC50: 0.3 µM
Human HDAC1
  IC50: 0.0024 µM
HDAC6
  IC50: 45 µM
KARN cells (Jurkat 2C4); [2]
  EC50: 780 nM
KARN cells (Jurkat 2C4); [3]
  EC50: 1600 nM

## COc1nc2ccccc2cc1-c1cnc([C@H](CCCCCC(=O)c2ncco2)NC(=O)C2(c3cnccn3)CC2)[nH]1 [Example 155, N-[(1S)-1-[5-(2-methoxyquinolin-3-yl)-1H-imidazol-2-yl]-7-(1,3-oxazol-2-yl)-7-oxoheptyl]-1-pyrazin-2-ylcyclopropanecarboxamide]
Human HDAC2
  IC50: 0.0053 µM
Human HDAC8
  IC50: 0.053 µM
Human HDAC1
  IC50: 0.00081 µM
[1]
  IC50: 0.0013 µM
KARN cells (Jurkat 2C4); [2]
  EC50: 50 nM
KARN cells (Jurkat 2C4); [3]
  EC50: 600 nM

## NC(CCCCCC(=O)c1ccon1)c1cnn(-c2ccc(F)cc2)c1 (stereo not shown) [Example 121, 7-amino-7-[1-(4-fluorophenyl)-1H-pyrazol-4-yl]-1-isoxazol-3-ylheptan-1-one]
Human HDAC1
  IC50: 0.015 µM
[1]
  IC50: 0.014 µM
HDAC6
  IC50: 45 µM

## N[C@@H](CCCCCC(=O)c1ncco1)c1ncc(-c2cc(F)ccc2F)[nH]1 [Example 135, (7S)-7-amino-7-[5-(2,5-difluorophenyl)-1H-imidazol-2-yl]-1-(1,3-oxazol-2-yl)heptan-1-one]
Human HDAC8
  IC50: > 0.9 µM
HDAC6
  IC50: > 0.9 µM
KARN cells (Jurkat 2C4); [2]
  EC50: 5600 nM
KARN cells (Jurkat 2C4); [3]
  EC50: 13000 nM

## N[C@@H](CCCCCC(=O)c1ncco1)c1ncc(-c2cnc(C3CC3)cn2)[nH]1 [Example 131, (7S)-7-amino-7-[5-(5-cyclopropylpyrazin-2-yl)-1H-imidazol-2-yl]-1-(1,3-oxazol-2-yl)heptan-1-one]
Human HDAC2
  IC50: 0.023 µM
Human HDAC8
  IC50: > 0.9 µM
[1]
  IC50: 0.009 µM
HDAC6
  IC50: > 0.9 µM
KARN cells (Jurkat 2C4); [2]
  EC50: 1300 nM
KARN cells (Jurkat 2C4); [3]
  EC50: 1500 nM

## COc1cc2nc(C)ccc2cc1-c1cnc([C@H](CCCCCC(=O)c2ncco2)NC(=O)CN2CCNCC2=O)[nH]1 [Example 159, N-[(1S)-1-[5-(7-methoxy-2-methylquinolin-6-yl)-1H-imidazol-2-yl]-7-(1,3-oxazol-2-yl)-7-oxoheptyl]-2-(2-oxopiperazin-1-yl)acetamide]
Human HDAC2
  IC50: 0.0058 µM
Human HDAC1
  IC50: 0.00082 µM
[1]
  IC50: 0.0017 µM
HDAC6
  IC50: 2.9 µM
KARN cells (Jurkat 2C4); [2]
  EC50: 1500 nM
KARN cells (Jurkat 2C4); [3]
  EC50: 2900 nM

## CCN[C@@H](CCCCCC(=O)c1ncco1)c1ncc(-c2cc3ccc(=O)n(C)c3cc2OC)[nH]1 [Example 77, (S)-6-(2-(1-(ethylamino)-7-(oxazol-2-yl)-7-oxoheptyl)-1H-imidazol-5-yl)-7-methoxy-1-methylquinolin-2(1H)-one]
Human HDAC8
  IC50: > 0.9 µM
HDAC6
  IC50: > 0.9 µM
KARN cells (Jurkat 2C4); [2]
  EC50: 120 nM
KARN cells (Jurkat 2C4); [3]
  EC50: 120 nM

## COc1nc2ccccc2cc1-c1cnc([C@H](CCCCCC(=O)c2ncco2)NC(=O)CN2CCCC2)[nH]1 [Example 52]
Human HDAC2
  IC50: 0.0025 µM
Human HDAC8
  IC50: 0.044 µM
Human HDAC1
  IC50: 0.00056 µM
[1]
  IC50: 0.0011 µM
KARN cells (Jurkat 2C4); [2]
  EC50: 23 nM
KARN cells (Jurkat 2C4); [3]
  EC50: 81 nM

## COc1cc2nc(C)ccc2cc1-c1cnc([C@H](CCCCCC(=O)c2ncco2)NC(=O)c2cc3n(n2)CCCC3)[nH]1 [Example 164]
Human HDAC2
  IC50: 0.018 µM
Human HDAC1
  IC50: 0.0033 µM
[1]
  IC50: 0.00087 µM
HDAC6
  IC50: > 0.9 µM
KARN cells (Jurkat 2C4); [2]
  EC50: 85 nM
KARN cells (Jurkat 2C4); [3]
  EC50: 290 nM

## N[C@H](CCCCCC(=O)c1ccon1)c1cc(-c2ccc(F)cc2)on1 [Example 119, (R)-7-amino-7-(5-(4-fluorophenyl)isoxazol-3-yl)-1-(isoxazol-3-yl)heptan-1-one]
Human HDAC2
  IC50: 0.42 µM
Human HDAC8
  IC50: 0.26 µM
Human HDAC1
  IC50: 0.096 µM
HDAC6
  IC50: 45 µM
KARN cells (Jurkat 2C4); [2]
  EC50: 10000 nM

## COc1nc2ccccc2cc1-c1cnc([C@H](CCCCCC(=O)c2ncco2)NC(=O)c2ccc(OC(F)F)nc2)[nH]1 [Example 146, 6-(difluoromethoxy)-N-[(1S)-1-[5-(2-methoxyquinolin-3-yl)-1H-imidazol-2-yl]-7-(1,3-oxazol-2-yl)-7-oxoheptyl]pyridine-3-carboxamide]
Human HDAC2
  IC50: 0.016 µM
Human HDAC8
  IC50: 0.096 µM
Human HDAC1
  IC50: 0.0053 µM
[1]
  IC50: 0.0023 µM
KARN cells (Jurkat 2C4); [2]
  EC50: 130 nM
KARN cells (Jurkat 2C4); [3]
  EC50: 440 nM

## COc1nc2ccccc2cc1-c1cnc([C@H](CCCCCC(=O)c2ncco2)NC(=O)c2nc3ccccc3o2)[nH]1 [Example 153, N-[(1S)-1-[5-(2-methoxyquinolin-3-yl)-1H-imidazol-2-yl]-7-(1,3-oxazol-2-yl)-7-oxoheptyl]-1,3-benzoxazole-2-carboxamide]
Human HDAC2
  IC50: 0.015 µM
Human HDAC8
  IC50: 0.167 µM
Human HDAC1
  IC50: 0.0085 µM
[1]
  IC50: 0.0042 µM
KARN cells (Jurkat 2C4); [2]
  EC50: 100 nM
KARN cells (Jurkat 2C4); [3]
  EC50: 560 nM

## COc1nc2ccccc2cc1-c1cnc([C@H](CCCCCC(=O)c2ncco2)NC(=O)c2cc3n(n2)CCCC3)[nH]1 [Example 154]
Human HDAC2
  IC50: 0.02 µM
Human HDAC8
  IC50: 0.11 µM
Human HDAC1
  IC50: 0.0051 µM
[1]
  IC50: 0.002 µM
KARN cells (Jurkat 2C4); [2]
  EC50: 120 nM
KARN cells (Jurkat 2C4); [3]
  EC50: 570 nM

## Cc1cc(C(=O)CCCCC[C@H](NC(=O)CN(C)C)c2nc(-c3ccccc3F)c[nH]2)no1 [Example 48]
Human HDAC2
  IC50: 0.001 µM
Human HDAC1
  IC50: 0.00018 µM
[1]
  IC50: 0.00015 µM
HDAC6
  IC50: 45 µM
KARN cells (Jurkat 2C4); [2]
  EC50: 28 nM
KARN cells (Jurkat 2C4); [3]
  EC50: 69 nM

## NC(CCCCCC(=O)c1ccon1)c1cnn(-c2ccc(F)cc2)c1 (stereo not shown) [Example 122, 7-amino-7-[1-(4-fluorophenyl)-1H-pyrazol-4-yl]-1-isoxazol-3-ylheptan-1-one]
Human HDAC1
  IC50: 0.5 µM
[1]
  IC50: 0.57 µM

## COc1nc2ccccc2cc1-c1cnc([C@H](CCCCCC(=O)c2ncco2)NC(=O)[C@H]2CCC(=O)N2)[nH]1 [Example 156, N-[(1S)-1-[5-(2-methoxyquinolin-3-yl)-1H-imidazol-2-yl]-7-(1,3-oxazol-2-yl)-7-oxoheptyl]-5-oxo-D-prolinamide]
Human HDAC2
  IC50: 0.0054 µM
Human HDAC1
  IC50: 0.0011 µM
[1]
  IC50: 0.0011 µM
KARN cells (Jurkat 2C4); [2]
  EC50: 88 nM
KARN cells (Jurkat 2C4); [3]
  EC50: 420 nM

## COc1nc2ccccc2cc1-c1cnc([C@H](CCCCCC(=O)c2ncco2)NC(=O)[C@@H]2CCC(=O)N2)[nH]1 [Example 157, N-[(1S)-1-[5-(2-methoxyquinolin-3-yl)-1H-imidazol-2-yl]-7-(1,3-oxazol-2-yl)-7-oxoheptyl]-5-oxo-L-prolinamide]
Human HDAC2
  IC50: 0.0041 µM
Human HDAC1
  IC50: 0.00064 µM
[1]
  IC50: 0.001 µM
KARN cells (Jurkat 2C4); [2]
  EC50: 77 nM
KARN cells (Jurkat 2C4); [3]
  EC50: 380 nM

## N[C@@H](CCCCCC(=O)c1ncco1)c1ncc(-c2ccc(OC(F)(F)F)cc2F)[nH]1 [Example 141, (7S)-7-amino-7-{5-[2-fluoro-4-(trifluoromethoxy)phenyl]-1H-imidazol-2-yl}-1-(1,3-oxazol-2-yl)heptan-1-one]
Human HDAC8
  IC50: > 0.9 µM
HDAC6
  IC50: > 0.9 µM
KARN cells (Jurkat 2C4); [2]
  EC50: 2400 nM
KARN cells (Jurkat 2C4); [3]
  EC50: 3500 nM
